In article PMC10967832, “Cloflucarban Illuminates Specificity and Context-Dependent Activation of the PINK1–Parkin Pathway by Mitochondrial Complex Inhibition” (Biomolecules, 2024):

Molecular target: T1, mitochondrial complex I (Bos taurus, UniProt P03887+P17694+P25708+P42026)
T1 construct: gene MT-ND1; native complex immunocaptured from solubilized bovine heart mitochondria
Assay: NADH oxidation, […] nm, immunocaptured complex
Assay type: biochemical
Details: ubiquinone 1, phospholipids, room temperature

Row | SMILES | % activity relative to vehicle at 50 μM
1 | Cc1nc(-c2ccc(-c3ccc(C(=O)N4CCc5cc6c(cc54)C4(CCN(C)CC4)CO6)cc3)c(C)c2)no1 [SB-224289] | 60%
2 | CO/C(=C/C(N)=O)[C@H](C)[C@H](/C=C/c1csc(-c2csc([C@@H](C)/C=C/C=C/C(C)C)n2)n1)OC [myxothiazole] | 48%
